Test [1] deals with T1, PxylCSP18 (Plutella xylostella, UniProt A0ABQ7Q8H2, Q80P). Briefly: Titration of PxylCSP18 with fluorescent probe 1-NPN (Scatchard plot). The format is binding. Conditions: 1 µM protein in 20 mM Tris–HCl pH 7.4, 1-NPN 1 to 17 µM, Scatchard plots; read-out: dissociation constant (K1-NPN). On the procedure: The fluorescence competitive binding assays were performed as described previously ([Fu et al. 2020], [Hua et al. 2021]) with some modifications. Briefly, the emission spectra of the fluorescent probe, N-phenyl-1-naphthylamine (1-NPN, Sigma-Aldrich, USA), were recorded from 350 to 600 nm with 5 nm width of the emission slits and the excitation wavelength was 337 nm. To measure the affinity of 1-NPN to PxylCSP18, 1 µM protein in 20 mM Tris–HCl buffer (pH 7.4) was titrated with 1-NPN to final concentrations ranging from 1 to 17 µM in 1 cm light path quartz cuvette. After incubation for 3 min, the fluorescence intensity for each test was detected on an RF-5301 fluorescence spectrophotometer (Shimadzu, Japan). The average data of the recorded fluorescence intensity at the maximum emission wavelength were linearized using the Scatchard equation, and the dissociation constants for 1-NPN were then calculated ([Sideris et al. 1992], [Hua et al. 2021]). Sixteen ligands, including 3 sex pheromone components ((Z)-11-hexadecenal, (Z)-11-hexadecenyl acetate, and (Z)-11-hexadecenyl alcolol) and some host volatiles (terpene, ketone, aldehyde, alcohol, and ester volatiles), were detected the affinities of PxylCSP18. The final concentrations for each ligand ranging from 1 to 17 µM were added into the mixed solution of 1-NPN probe (1 µM) and PxylCSP18 (1 µM). […]

For test [2], the target named is T1, PxylCSP18. Briefly: Fluorescence competitive binding assays with 1-NPN as probe. Conditions: for Ki: Ki = [IC50]/(1 + [1-NPN]/K1-NPN). On the procedure:
The coding region of mature PxylCSP18 was cloned from the synthesized cDNA with the specific primers, in which an EcoR V and an Xho I restriction sites were introduced (Table 1). The amplified product was cloned into the pET-32a vector (Novagen, USA), followed by transformation into the competent E. coli BL21 (DE3) (Tiangen, China). The expression of PxylCSP18 in the bacteria was induced by 0.6 mM isopropyl-beta-D-thiogalactopyranoside (IPTG) overnight. Subsequently, the bacterial cells were collected through centrifugation and resuspended into phosphate-buffered saline (PBS) solution, then homogenized through sonication on ice using an ultrasonic processor (Sonics Vibra-Cell, USA). PxylCSP18 was purified from the soluble faction using a Ni^2+-NTA column (Roche, Switzerland) through a stepwise elution with 20, 50, 100, 150, and 500 mM imidazole in PBS. […] Finally, the PxylCSP18 was concentrated through ultrafiltration using a centrifugal device (3 kDa, Merck Millipore, USA), and the concentration was determined using the BCA Protein Assay Kit (Sangon, China). The purified recombinant PxylCSP18 was verified by peptide mass fingerprinting (Sangon Biotech, China).
Briefly, the emission spectra of the fluorescent probe, N-phenyl-1-naphthylamine (1-NPN, Sigma-Aldrich, USA), were recorded from 350 to 600 nm with 5 nm width of the emission slits and the excitation wavelength was 337 nm. […] Sixteen ligands, including 3 sex pheromone components ((Z)-11-hexadecenal, (Z)-11-hexadecenyl acetate, and (Z)-11-hexadecenyl alcolol) and some host volatiles (terpene, ketone, aldehyde, alcohol, and ester volatiles), were detected the affinities of PxylCSP18. […] The acquired data were calculated from the Scatchard plots for dissociation constants (Kd) and the curves, assuming PxylCSP18 was active completely and bound to the ligands in a 1:1 ratio at saturation.

A further test has as its system PxylCSP11. Details: method as in Fu et al. 2020. The conditions noted are these: ref Fu et al. 2020; cited from earlier work.
Another test concerns P. xylostella adults. Briefly: Y-tube olfactometer bioassays after RNAi knockdown of PxylCSP18. The format is in vivo, Plutella xylostella. The conditions noted are these: day-2 unmated, 10 μg/μl in paraffin oil, dsCSP18 vs dsGFP. On the procedure:
The pupae the day before eclosion were collected and used for RNA interference. The pupae were anesthetized on ice and then injected with 1 μl of dsRNA (10 μg/μl) at the dorsal site of the abdomen using a Nanoject III micro-injector (Drummond Scientific, Broomall, PA) equipped with glass capillaries prepared using a P-97 micropipette puller (Sutter Instrument Co., Novato, CA). The antennae of day-2 unmated female and male adults were collected to detect the efficiency of RNAi-mediated knockdown of PxylCSP18 through […]. Three independent biological replicates were performed.
The responses of the day-2 unmated female and male adults to the volatile compounds were performed using a glass Y-tube olfactometer with a central glass tube (5 cm long × 2.5 cm ID) and 2 lateral glass arms (15 cm long × 2.5 cm ID) with a 75° inside angle as described previously ([Yan et al. 2023]), with some modifications. Before bioassays, all glasswares were cleaned and washed with absolute alcohol and dried at 100 °C for 5 min. A moistened and activated charcoal-filtered airflow (350 mL/min) was pumped into each source container using an atmospheric sampling instrument (QC-1S, Beijing Institute of Labor Protection Science, Beijing, China). The behavioral response of male and female adults of P. xylostella to trans-2-hexen-1-ol, isopropyl isothiocyanate, myrcene, linalool were then observed. Each component was diluted with paraffin oil to 10 μg/μl. For each chemical, an aliquot of 10 μl was applied to a strip of filter paper (0.5 × 5 cm) and placed in 1 source container. A filter paper strip loaded with the same volume of paraffin oil and placed in the second source container was used as a control. Each test male or female moth was released at the entrance of the central glass tube of the Y-tube olfactometer and observed for 5 min. […] The positions of the arms were reversed after 5 insects to avoid positional bias. The experimental device was cleaned after every 10 insects by washing it with absolute acetone and followed by heating at 100 °C for 5 min. Each concentration of compound stimulus was tested with 30 insects, which successfully made a “choice.” The choice index was calculated as the number of responses of moths to […] divided by the total number of test moths.

For the next test, the system named is P. xylostella. The conditions noted are these: ref Song et al. 2022; cited from earlier work.
The subject of a further test is PxylCSP1. More on the design: method as in Liu et al. 2010. Conditions: ref Liu et al. 2010; cited from earlier work.
Setting [3] is: 1-NPN 1 µM, PxylCSP18 1 µM, ligand 1 to 17 µM, concentration of ligand halving the initial fluorescence, N.D. = no significant binding detected, read-out: IC50.
Setting [4] is: 1-NPN 1 µM, PxylCSP18 1 µM, N.D. = no significant binding detected.
The mark [5] stands for this setting: 1-NPN 1 µM, PxylCSP18 1 µM, ligand 1 to 17 µM.

Read-outs that look alike come from different tables or passages of the source.

This is an account of results in article PMC10829696, “Identification, expression profiles, and binding properties of chemosensory protein 18 in Plutella xylostella (Lepidoptera: Plutellidae)” (Journal of Insect Science, 2024).

T1 sequence (A0ABQ7Q8H2 entry or part of it Q80P): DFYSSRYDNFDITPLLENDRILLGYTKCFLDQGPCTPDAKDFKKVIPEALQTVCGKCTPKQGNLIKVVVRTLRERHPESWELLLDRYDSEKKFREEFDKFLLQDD

Regarding `c1ccc(Nc2cccc3ccccc23)cc1` [1-NPN, N-phenyl-1-naphthylamine], at PxylCSP18 [1], the Kd stood at 9.85 µM.
Regarding `CCCCCCCCC=O` [1-Nonanal], on PxylCSP18 [2], the IC50 turned out to be 7.94 µM.
As for `C=CC(O)CC` (stereo not drawn) [1-Penten-3-ol], the IC50 on PxylCSP18 [2] was determined as 7.17 µM.
As for `CCCC(C)CC(C)C` (stereo not drawn) [2,4-dimethylheptane], the “affinity of PxylCSP11” value in the test on PxylCSP11 is recorded as “good affinities”.
Regarding `CCC/C=C/CO` [(E)-2-Hexenal-1-ol], at PxylCSP18 [2] (setting [3]), the IC50 came out at 7.66 µM. Further, at PxylCSP18 [2] (setting [4]), the Ki was 6.11 µM. In the test on P. xylostella adults, the “attractive effects to P. xylostella female adults after knocked down the expression of PxylCSP18” value is on record as “decreased inconspicuously” and the “attractive effects to P. xylostella male adults after knocked down the expression of PxylCSP18” value is recorded as “significantly decreased”.
Turning to `CC/C=C\CCOC(C)=O` [(Z)-3-Hexenyl acetate], the IC50 at PxylCSP18 [2] was determined as 9.09 µM.
With `CCCC/C=C\CCCCCCCCCC=O` [(Z)-11-hexadecenal], the “binding affinity of PxylCSP18 to ligand (in words)” value (shortened to “binding affinity of PxylCSP18”) at PxylCSP18 [2] (setting [5]) is given as “no significant binding affinity”.
For the compound `CCCC/C=C\CCCCCCCCCCOC(C)=O` [(Z)-11-hexadecenyl acetate], at PxylCSP18 [2] (setting [5]), the “binding affinity of PxylCSP18” value is “no significant binding affinity”. The “affinity of PxylCSP11” value in the test on PxylCSP11 was “good affinities”.
As to `CCCC/C=C\CCCCCCCCCCO` [(Z)-11-hexadecenyl alcolol], the “binding affinity of PxylCSP18” value at PxylCSP18 [2] (setting [5]) is “no significant binding affinity”.
The compound `C=CCN=C=S` [Allyl isothiocyanate] returned an IC50 at PxylCSP18 [2] of 7.23 µM. In addition, in the test with PxylCSP11, the “affinity of PxylCSP11” value was “good affinities”.
The compound `CCCCN=C=S` [Buty1 isothiocyanate] gave a half-inhibitory concentration (IC50) on PxylCSP18 [2] of 8.86 µM.
With `CCCCCC=O` [Caproldehyde], the IC50 at PxylCSP18 [2] (setting [3]) was determined as 7.49 µM. In addition, on PxylCSP18 [2] (setting [4]), the Ki is 5.98 µM.
`CC(C)N=C=S` [Isopropyl isothiocyanate] showed an IC50 on PxylCSP18 [2] of 8.17 µM. Further, in the test with P. xylostella adults, the “attractive effects to P. xylostella female adults after knocked down the expression of PxylCSP18” value was “significantly weakened” and the “attractive effects to P. xylostella male adults after knocked down the expression of PxylCSP18” value is “significantly decreased”.
In the case of `C=C(C)[C@H]1CC=C(C)CC1` [Limonene], on PxylCSP18 [2] (setting [3]), the IC50 turned out to be 1.85 µM. Further, at PxylCSP18 [2] (setting [4]), the Ki was 1.48 µM.
With `C=CC(C)(O)CCC=C(C)C` (stereo not drawn) [Linalool], the IC50 at PxylCSP18 [2] came out at 7.61 µM. For the same compound, in the test on P. xylostella adults, the “repellent effects to P. xylostella female adults after knocked down the expression of PxylCSP18” value is on record as “significantly weakened” and the “repellent effects to P. xylostella male adults after knocked down the expression of PxylCSP18” value is reported as “decreased inconspicuously”.
For the compound `C=CC(=C)CCC=C(C)C` [Myrcene], the half-maximal inhibitory concentration (IC50) at PxylCSP18 [2] stood at 1.34 µM. Besides, the “behavioural effect on P. xylostella” value in the test on P. xylostella was “repellent”. In the test on P. xylostella adults, the “repellent effects to P. xylostella female adults after knocked down the expression of PxylCSP18” value is “decreased inconspicuously” and the “repellent effects to P. xylostella male adults after knocked down the expression of PxylCSP18” value is given as “decreased inconspicuously”.
Turning to `CC1(C)[C@H]2O[C@H]2[C@H]2[C@](C)(O)[C@@H]3CC[C@@H]4[C@@H](O)[C@@]3(C[C@@H](O)[C@@]21O)C[C@@]4(C)O` [Rhodojaponin-III], in the test on PxylCSP1, the “ability of PxylCSP1 to bind” value is recorded as “remarkable ability to bind”.
With `OCCc1ccccc1` [phenethyl alcohol], the “affinity of PxylCSP11” value in the test with PxylCSP11 is “good affinities”.
For `S=C=NCCc1ccccc1` [phenethyl isothiocyanate], in the test with PxylCSP11, the “affinity of PxylCSP11” value is listed as “good affinities”.
Take `CC(=O)/C=C/C1C(C)=CCCC1(C)C` (stereo not drawn) [α-Ionone]: on PxylCSP18 [2], the IC50 was 4.19 µM.
In turn, `CC1=CC=C(C(C)C)CC1` [α-Terpinene] came in with an IC50 at PxylCSP18 [2] of 1.29 µM. The “affinity of PxylCSP11” value in the test on PxylCSP11 is on record as “good affinities”.
`CC1=CC[C@@H](C(C)(C)O)CC1` [α-terpineol]: the “affinity of PxylCSP11” value with PxylCSP11 is reported as “good affinities”.
`CC1=CCC(C(C)C)=CC1` [γ-Terpinene] yielded an IC50 on PxylCSP18 [2] of 1.21 µM. The “behavioural effect on P. xylostella” value with P. xylostella was “repellent”.

The IC50 is the concentration that inhibits the measured activity by half. One may read the Ki as a dissociation constant, usually derived from enzyme kinetics or from competition with a known ligand.
